Laboratory results: patent EP1094724B1, “USE OF A PHENOL OXIDISING ENZYME IN THE TREATMENT OF TOBACCO” (priority 1998, dated 2000)

System: Myceliopthora thermophila laccase (MtL)
Assay: MtL treatment of tobacco extract, quantitative HPLC of chlorogenic acid, rutin and scopoletin
Format: biochemical
Conditions: detection limit CA 2.43, R 1.55, S 0.50 µg/ml
Procedure: The content of phenolic compounds is analysed by HPLC according to the procedure described below: • Liquid chromatographic system: E.g. Shimadzu SCL-6B System Controller, and two LC-6A Liquid Chromatograph (pumps) or Waters model 600 E • Injector: Shimadzu SIL 6B Autoinjector or Waters 715 Ultra Wisp. UV detector: Shimadzu SPD-6A Photodiode Array UV-VIS detector or Waters Model 481 • Software: CLASS LC10 / CLASS-MXA or Maxima 820 • Column: Supelcosil™ LC-18 25 cm x 4.6 mm (Supelco, #5-8298) or µ Bondapack C198 stainless steel column, 30 cm x 4 mm i.d., 10 µm particle size. • Guard column: none or Guard-Pak from Waters packed with the same material. • Temperature: Ambient • Mobile phase flow: 1.3 ml/min • Injection volume: 20µl • Wavelength: 350 nm • Eluent: Binary gradient (linear) mixture of A: KH2PO4 (28.4 g in 2000 ml de-mineralised water) and B: methanol (please see table 1 and figure 1). The eluent is filtered through a 0.45 µm filter and degassed before use.
Prior to HPLC analysis, the samples were filtered through a 0.45 µm filter or smaller, e.g. a sterile Sartorius Minisart 0.45 µm filter (#16555) or a Millipore Millex-GS 0.22 µm (#SBGS 0 25 SB) to remove the haze/precipitate normally formed during enzyme treatment. Normally, no dilution of the extract/sample was made before HPLC analysis.
For quantitative measurements the following standards were made in the extracting solution: Chlorogenic acid: 20 mg/ml; Scopoletin: 1 mg/ml; Rutin: 0.75 mg/ml.
The mixture was intensely aerated during the reaction time.
"Raw tobacco" was extracted according to the procedure described in Example 8. […] After enzyme treatment, bentonite was added at a concentration of 1 g/L at the temperature of the extract after the laccase treatment (50°C) for 10 minutes. The slurry was clarified at a flow rate of 1 L/min using a continuous centrifuge. The enzyme treated and clarified extract was then concentrated 40 fold by means of reverse osmosis and evaporation. The concentrate was then recombined with the "tobacco residue" by spraying back the extract onto the tobacco residue, and finally dried, resulting in "recombined tobacco material".
Samples of tobacco before and after extraction and recombination with the tobacco extract was analysed for nicotine, reducing sugars, total sugars by means of an Auto Analyzer according to the method previously described, and analysed for chlorogenic acid, rutin, and scopoletin by means of HPLC according the method previously described. The tobacco extract before and after MtL and bentonite treatment was analysed for chlorogenic acid, rutin, and scopoletin by means of HPLC according the method previously described.

[1] = 5 min, 52.0 °C, 4.1 µg/ml MtL, 3.0 kg/100 litre scale
[2] = 5 minutes, 56.2 °C, MtL, 6.0 kg/200 litre scale
[3] = 10 min, 50.3 °C, 4.1 µg/ml MtL, 3.0 kg/100 litre scale
[4] = 10 minutes, 55.8 °C, MtL, 6.0 kg/200 litre scale
[5] = 15 min, 48.8 °C, 4.1 µg/ml MtL, 3.0 kg/100 litre scale
[6] = 15 minutes, 55.2 °C, MtL, 6.0 kg/200 litre scale
[7] = 20 min, 47.4 °C, 4.1 µg/ml MtL, 3.0 kg/100 litre scale
[8] = 20 minutes, 54.5 °C, MtL, 6.0 kg/200 litre scale
[9] = 30 min, 45.0 °C, 4.1 µg/ml MtL, 3.0 kg/100 litre scale
[10] = 30 minutes, 53.5 °C, MtL, 6.0 kg/200 litre scale
[11] = 45 min, 41.9 °C, 4.1 µg/ml MtL, 3.0 kg/100 litre scale
[12] = 45 minutes, 52.2 °C, MtL, 6.0 kg/200 litre scale
[13] = 60 min, 39.1 °C, 4.1 µg/ml MtL, 3.0 kg/100 litre scale
[14] = 60 minutes, 51.0 °C, MtL, 6.0 kg/200 litre scale
[15] = Extract after MtL treatment, 4.1 µg/ml MtL, 20 minutes at 55°C, intense aeration
[16] = Extract after MtL- and bentonite treatment and separation by centrifugation, 4.1 µg/ml MtL 20 minutes at 55°C, bentonite 1 g/L 10 minutes at 50°C

SMILES	Content in tobacco extract during MtL treatment [1]	Content in tobacco extract during MtL treatment [2]	Content in tobacco extract during MtL treatment [3]	Content in tobacco extract during MtL treatment [4]	Content in tobacco extract during MtL treatment [5]	Content in tobacco extract during MtL treatment [6]	Content in tobacco extract during MtL treatment [7]	Content in tobacco extract during MtL treatment [8]	Content in tobacco extract during MtL treatment [9]	Content in tobacco extract during MtL treatment [10]	Content in tobacco extract during MtL treatment [11]	Content in tobacco extract during MtL treatment [12]	Content in tobacco extract during MtL treatment [13]	Content in tobacco extract during MtL treatment [14]	phenolic compound content of tobacco extract [15]	phenolic compound content of tobacco extract [16]
O=C(C=Cc1ccc(O)c(O)c1)OC1CC(O)(C(=O)O)CC(O)C1O (centres unmarked) [CA, 3-[[3-(3,4-Dihydroxyphenyl)-1-oxo-2-propenyl]oxy]1,4,5-trihydroxycyclohexanecarboxylic acid]	0.036 mg/mL	0.0166 mg/mL	BDL	0.0138 mg/mL	BDL	BDL	BDL	BDL	BDL	BDL	BDL	BDL	BDL	BDL	BDL	BDL
COc1cc2ccc(=O)oc2cc1O [S, 7-Hydroxy-6-methoxy-2H-1-benzopyran-2-one]	0.0063 mg/mL	0.0101 mg/mL	0.0027 mg/mL	0.0090 mg/mL	0.0014 mg/mL	0.0078 mg/mL	0.0010 mg/mL	0.0054 mg/mL	0.0010 mg/mL	0.0043 mg/mL	0.0010 mg/mL	0.0020 mg/mL	0.0010 mg/mL	0.0019 mg/mL	0.0047 mg/mL	0.0017 mg/mL
